One substance from patent US20130236568A1, “PHOSPHAPLATINS HAVING ANTI-ANGIOGENIC, ANTI-METASTATIC, AND PRO-APOPTOTIC PROPERTIES AND USES THEREOF” (Ohio University, priority 2011, published 2013) can be followed below.

Holding throughout (assay type): cell-based, human
One assay has as its system FasL. Kind of assay: Quantitative real-time PCR, FasL expression in HUVEC. To be noted: HUVEC treated with pyrodach-4. The protocol:
Evaluations of selected gene expressions in Human Umbilical Vein Endothelial Cells (HUVEC) and Human Ovarian Cancer Cells by quantitative reverse transcriptase polymerase chain reaction (PCR)
Quantitative real-time PCR experiments were performed to estimate the expression of a selection of targeted genes. HUVEC cells (Lonza Walkersville, Frederick, Md.) were cultured on 0.1% gelatin-coated petri dishes by following standard protocols recommended by the vendor in a humidified incubator by maintaining 5% CO2 at 37° C. […]
(§1) Both treated and untreated cancer cells were maintained in RPMI 1640 medium with 10% fetal bovine serum, 2 μmol L-glutamine, 100 units/mL penicillin-streptomycin and 0.25 units/mL insulin solution, at 37° C. with 5% CO2. […] The quantity and purity of RNA were determined by UV spectroscopy (NanoDrop 2000 Thermo Scientific, Wilmington, Del.). A minimum absorbance ratio index (ratio of the absorbance measured at 260 nm over that at 280 nm) of 1.9 was used as an acceptable purity. […] The target gene was labeled with a blue dye (FAM, absorbance: 494 nm, emission: 518 nm) while the reference gene was tagged with a green dye (VIC, absorbance: 538 nm, emission: 554 nm). […]
The threshold cycle number (Ct), the point at which the fluorescence of the qPCR reaction just exceeds the threshold fluorescence of the detection system, was determined. […]

A further assay deals with A2780 cells. Kind of assay: Cell death detection assay with ELISA, A2780 cells. Particulars: 24 hr. The protocol:
In these experiments, ovarian cancer cells were treated with pyrodach-4 in the presence and absence of inhibitors PFT-α (an inhibitor p53) and LY29400 (an inhibitor of PI3K).
Cells were treated with compounds for 24 hr. The different treatment groups from left to right are: control, 7 μM cisplatin, Con+PFT-α, 180 μM D4, 180 μM D4+PFT-α, 180 μM D4+LY294002. Statistical analysis was conducted using the Tukey test. N=3 and P<0.05. In the figure, “*” indicates values significant from untreated control.
A2780 and A2780/C30 cells were grown in monolayers, trypsinized and suspended in supplemented RPMI 1640 media as described in Example 5. All the treatments on the Fc/A2780 and Fc/A2780/C30 cell samples were carried out in triplicate. The ELISA was performed according to the manufacturer's instructions. Briefly, 50,000 cells were plated for each treatment and the cells were allowed to adhere for 4-6 hours. Cells were then either incubated with media alone (untreated sample) or with pyrodach-4 or cisplatin in the concentrations indicated above. […] The absorbances were measured at 405 and 490 nm for each treatment type using SPECTRA Max M2 multichannel fluorescence plate reader (Molecular Devices, Sunnyvale, Calif.). The absorbances of the treated samples were normalized to the substrate solution. […]

Another assay has as its system PTEN. Kind of assay: Expression of key genes with and without p53 inhibitor (Table 3): PTEN. Particulars: positive = manifold increase, negative = decrease vs untreated cells. As for the experimental part:
Quantitative real-time PCR experiments were performed to estimate the expression of a selection of targeted genes. HUVEC cells (Lonza Walkersville, Frederick, Md.) were cultured on 0.1% gelatin-coated petri dishes by following standard protocols recommended by the vendor in a humidified incubator by maintaining 5% CO2 at 37° C. Human epithelial ovarian cancer cells (A2780) and cisplatin-resistant cells (A2780/C30) were cultured in RPMI 1640 with or without cisplatin (7 μM) and pyrodach-4 (180 μM) for 0, 3, 12 and 24 hours. […] HUVECs were treated with or without cisplatin (7 μM) or pyrodach-4 (90 or 180 μM) for various durations ranging from 1 hr. to 6 hrs.
as §1, with “CO2. RNA was isolated from both the treated and untreated cells.” for “CO2.”

Turning to “trans-(±)-1,2-cyclohexanediamine-trans-dihydroxo(pyrophosphato) platinum(IV) [Pyrodach-4]”, the “Over-expression of FasL” value in the assay with FasL is 2-4 fold. Besides, in the assay with A2780 cells (180 μM D4 with PFT-α 15 μM or LY294002 30 μM vs 7 μM cisplatin), the “Overall apoptotic cell death in the presence of inhibitors, compared to cisplatin” value is reported as “remained extremely high compared to cisplatin”. The “Effect of p53 and PI3K inhibitors on apoptotic cell death (ELISA absorbance)” value in the assay with A2780 cells (180 μM D4 with PFT-α 15 μM or LY294002 30 μM) is reported as “some reduction in cell death”. Further, the “Expression of PTEN” value is −1.3 in the assay with PTEN (Pyrodach-4 + PFT-α) and 5.5 in the assay with PTEN (Pyrodach-4 treatment only).
